Test system: serum lipids and serum lipid hydroperoxide
Assay: Pharmacological test method A for anti-hyperlipidemic activity (serum lipids, 2 weeks feeding)
Assay type: in vivo, male Wistar strain rats
Conditions: for AI [(TC - HDL-C)/(HDL-C)] / HDL-C in serum / LPO in serum / PL in serum / TC in serum / TG in serum: 1% in hyperlipidemic diet, 2 weeks
Procedure: Male Wistar strain rats (100±lg, each 10 rats were formed into a group) were used as test animals. Diet for the control group was prepared by thorough mixing of 20% casein, 62.5% glucose, 10% hydrogenated coconut oil, 2% agar powder, 4% vitamin-containing salt mixture, 1% cholesterol, and 0.5% cholic acid (this composition is described by Fukushima et al, in "Yakugaku Zassi", 89, No. 6, pp. 857-862 (1962)). Diet for the test groups was prepared by good mixing of 1% each of cycloartenol, 24-methylenecycloartanol, and cyclobranol with the control group's diet. Each rat was kept in a cage at a constant temperature of 23±1° C. and a constant R.H. of 55±5% for 2 weeks, during which 10 g/day of the prescribed was given. Finally the rats were fasted from food except water for 16 hours (from 4 p.m. of the 14th test day to 8 a.m. of the 15th test day), and under anesthesia with pentbarbital sodium (tradename: Nembutal), blood was taken from each rat through the descending abdominal arota. Then, TC, HDL-C, TG, PL, and LPO in the serum were measured in the manner that will be described below.
A TC kit-K (supplied by Nippon Shoji Kaisha, Ltd.) was used. The principle of this determination is as follows: The ester of cholesterol in the serum is hydrolyzed with cholesterol-ester hydrolase into free cholesterol and fatty acids. All the free cholesterol is oxidized with cholesterol oxydase to form Δ^4 -cholestenone and hydrogen peroxide. Phenol and 4-aminoantipyrin are oxidatively condensed together by the formed hydrogen peroxide and peroxydase. The produced red quinone coloring matter is measured by colorimetry for absorbance at 500 nm using a spectrophotometer, thereby determining the TC:
The color-developing liquid (3.0 ml) is well mixed with the sample serum (0.02 ml). The mixture once heated at 37° C. for 15 minutes, is measured for absorbance at 500 nm with a spectrophotometer. The found absorbance is denoted by EA. On the other hand, the color-developing liquid (3.0 ml) is well mixed with the standard solution. The mixture is treated and measured for absorbance at 500 nm in the same manner as the above. This found absorbance is denoted by ES. Both EA and ES are determined with reference to the value of the blank test conducted using the color-developing liquid (3.0 ml) alone. [formula]
An HDL-C kit-N (supplied by Nippon Shoji Kaisha, Ltd.) was used. […] (VLDL) and lo density lipoprotein (LDL) in the serum is precipitated by the action of heparin. The precipitate is separated by centrifugation. High density lipoprotein (HDL) is dissolved in the separated supernatant. Esters of cholesterol in this fraction is hydrolyzed with cholesterol-ester hydrolase into free cholesterol and fatty acids. All the free cholesterol is oxidized with cholesterol oxydase to form Δ^4 -cholestenone and hydrogen peroxide. Phenol and 4-aminoantipyrine are oxidatively condensed together by the formed hydrogen peroxide and peroxydase. The produced red quinone coloring matter is measured by colorimetry for absorbance at 500 nm using a spectrophotometer, thereby determining the HDL-C.
A PL kit-K (supplied by Nippon Shoji Kaisha, Ltd.) was used for the determination. Lecithin, sphingomyelin, and lysolecithin are decomposed by phospholipase D into choline and phosphatidic acid, N-acylsphingosyl phosphate, or lysophosphatidic acid, respectively. The resulting choline is quantitatively decomposed by choline oxydase into hydrogen peroxide and betaine. With this hydrogen peroxide, and aid of peroxydase, phenol and 4-aminoantipyrin are condensed into red quinone pigment, then the absorbance at 500 nm of which is measured with a spectrophotometer, thereby determining the PL.
Serum TG level was determined by means of a triglyceride test kit (supplied by Wako Pure Chemical Industries, Ltd.) in which acetylacetone is used for a reagent, in the following manner: Serum proteins are precipitated, when isopropyl alcohol and the sample serum are mixed. […]

Molecule	AI [(TC - HDL-C)/(HDL-C)]	HDL-C in serum [mg/dL]	LPO in serum [nmol/mL]	PL in serum [mg/dL]	TC in serum [mg/dL]	TG in serum [mg/dL]	AI % of diff. (versus control group) [%]	AI Diff. (versus control group)	HDL-C % of diff. (versus control group)	HDL-C Diff. (versus control group)	LPO % of diff. (versus control group) [%]	LPO Diff. (versus control group) [nmol/mL]	PL % of diff. (versus control group)	PL Diff. (versus control group)	TC % of diff. (versus control group) [%]	TC Diff. (versus control group) [mg/dL]	TG % of diff. (versus control group)	TG Diff. (versus control group)	AI Diff. (Table 2, versus control group) [mg/dL]
C=C(CCC(C)C1CCC2(C)C3CCC4C(C)(C)C(OC(=O)CCCCCCC/C=C\C/C=C\CCCCC)CCC45CC35CCC12C)C(C)C (centres unmarked) [Example 93, 24-Methylenecycloartanyl ester of linoleic acid]	0.761	91.5	1.70	150.2	161.1	35.1	-37.7	-0.461	+5.8%	+5.0 mg/dl	-24.3	-0.54	-13.0%	-22.4 mg/dL	-16.2	-31.1	-3.3%	-1.2 mg/dL	–
CC(C)=CCCC(C)C1CCC2(C)C3CCC4C(C)(C)C(OC(=O)c5ccc(O)c(O)c5)CCC45CC35CCC12C (centres unmarked) [Example 27, cycloartenyl-3,4-dihydroxybenzoate]	0.955	95.2	1.99	160.3	186.1	40.4	-43.3	-0.729	+17.7%	+14.3 mg/dl	-14.0	-0.32	-10.8%	-19.4 mg/dL	-14.3	-31.0	-5.5%	-2.4 mg/dL	–
C=C(CCC(C)C1CCC2(C)C3CCC4C(C)(C)C(OC(=O)C=Cc5ccc(O)c(OC)c5)CCC45CC35CCC12C)C(C)C (centres unmarked) [Example 100-3, 24-methylenecycloartanyl-4-hydroxy-3-methoxycinnamate]	1.393	73.8	1.89	152.9	176.6	35.1	-8.2	-0.124	-9.4%	-7.7 mg/dL	-16.7	-0.38	-11.9%	-20.7 mg/dL	-13.9	-28.5	+2.3%	+0.8 mg/dl	–
cycloartenyl-3,4-diacetoxycinnamate [Example 1]	1.410	72.0	2.03	173.7	173.5	38.0	-7.1	–	-11.6%	-9.5 mg/dL	-10.6	-0.24	+0.06%	+0.1 mg/dl	-15.4	-31.6	+10.9%	+3.7 mg/dl	-1.107
CC(C)=CCCC(C)C1CCC2(C)C3CCC4C(C)(C)C(OC(=O)c5ccccc5O)CCC45CC35CCC12C (centres unmarked) [Example 8, cycloartenyl-o-hydroxybenzoate]	0.759	101.1	2.01	148.8	177.8	41.3	-54.9	-0.925	+25.0%	+20.2 mg/dl	-13.0	-0.30	-17.2%	-30.9 mg/dL	-18.1	-39.3	-3.5%	-1.5 mg/dL	–
CC(C)=CCCC(C)C1CCC2(C)C3CCC4C(C)(C)C(OC(=O)C=Cc5ccc(N)cc5)CCC45CC35CCC12C (centres unmarked) [Example 102, cycloartenyl ester of p-amino-cinnamic acid]	3.262	48.1	2.02	140.9	205.0	26.7	-58.4	-4.578	+30.4%	+11.2 mg/dl	-27.9	-0.78	-14.9%	-24.7 mg/dL	-37.2	-121.2	-21.5%	-7.3 mg/dL	–
CCCOc1cc(C=CC(=O)OC2CCC34CC35CCC3(C)C(C(C)CCC=C(C)C)CCC3(C)C5CCC4C2(C)C)ccc1O (centres unmarked) [Example 74, cycloartenyl-4-hydroxy-3-propoxycinnamate]	0.787	92.4	2.09	162.1	165.1	33.1	-21.5	-0.215	-4.0%	-3.8 mg/dL	-10.4	-0.24	-10.4%	-18.8 mg/dL	14.3	-27.5	-0.3%	-0.1 mg/dL	–
COc1cc(C(=O)OC2CCC34CC35CCC3(C)C(C(C)CCC=C(C)C)CCC3(C)C5CCC4C2(C)C)ccc1O (centres unmarked) [Example 29, cycloartenyl-4-hydroxy-3-methoxybenzoate]	0.611	101.0	1.95	160.6	162.7	32.7	-39.0	-0.391	+5.0%	+4.8 mg/dl	-16.3	-0.38	-11.2%	-20.3 mg/dL	-15.5	-29.9	-1.5%	-0.5 mg/dL	–
C=C(CCC(C)C1CCC2(C)C3CCC4C(C)(C)C(OC(=O)C=Cc5cccc(N)c5)CCC45CC35CCC12C)C(C)C (centres unmarked) [Example 112, 24-methylenecycloartanyl ester of m-aminocinnamic acid]	3.624	46.8	2.16	150.4	216.4	28.5	-53.8	-4.216	+26.8%	+9.9 mg/dl	-22.9	-0.64	–	-15.2 mg/dL	-33.7	-109.8	-16.2%	-5.5 mg/dL	–

From patent publication US4748161A, “Triterpenyl esters of organic acids and hypolipidemic agents composed of them” (Amano Pharmaceutical Co., Ltd., priority 1984, dated 1988)
